Source: patent publication US20190241569A1, “3-(ARYL OR HETEROARYL) METHYLENEINDOLIN-2-ONE DERIVATIVES AS INHIBITORS OF CANCER STEM CELL PATHWAY KINASES FOR THE TREATMENT OF CANCER” (Boston Biomedical, Inc., priority 2013, published 2019)

Key:
FaDu = assay: Bulk cancer cells, Cell Titer-Glo 72 hours (Test Example 2); format: cell-based; details: Homo sapiens
Procedure: (§1) Tubes of 3× drug (60 uM in 500 uL complete media) were prepared from 5 mM stock solutions in DMSO. […] To treat cells, 50 uL of drug from the dilution plate was removed and added to the cell plates. […] Cells were harvested 72 hours after drug addition using Cell Titer-Glo (Promega) and luminescence measured on a plate reader.

ACHN = assay: as above; format: cell-based; details: Homo sapiens, ACHN, 72 h
Procedure: as §1

A549 = assay: as above; format: cell-based; details: Homo sapiens
Procedure: as §1

ACHN CSC = assay: Cancer stem cells, Cell Titer-Glo 72 hours (Test Example 3); format: cell-based; details: Homo sapiens, ACHN, 72 h
p-RPS6 Ser235/236 = assay: Kinase inhibition, Western blot in HeLa cells (Test Example 5); format: cell-based; details: Homo sapiens, 5 uM, 6 hours, DMSO = 100, read-out: p-RPS6 Ser235/236 Relative Intensity (%)
Procedure: (§2) HeLa cells were treated with 5 uM of the indicated compound for 6 hours. Following compound incubation, cells were washed twice with ice-cold PBS and lysed in lysis buffer (50 mM HEPES, pH 7.5, 1% Nonidet P40, 150 mM NaCl, 1 mM EDTA, 1× protease inhibitor cocktail (Promega)). 30 micrograms of soluble protein was separated by SDS-PAGE and transferred to PVDF membranes. Primary antibodies against p-AMPK Thr172, p-RPS6 Ser235/236, p-RPS6 Ser240/244, and Tubulin (Cell Signaling Technology) were used. The antigen-antibody complexes were visualized by enhanced chemiluminescence (BioRad). The results are shown below in Tables 17A-17E.

p-RPS6 Ser240/244 = assay: as above; format: cell-based; details: Homo sapiens, 5 uM, 6 hours, DMSO = 100, read-out: p-RPS6 Ser240/244 Relative Intensity (%)
Procedure: as §2

p-AMPK Thr172 = assay: as above; format: cell-based; details: Homo sapiens, 5 uM, 6 hours, DMSO = 100, read-out: p-AMPK Relative Intensity (%)
Procedure: as §2

human RIOK2 protein = biological target: T1, human RIOK2 protein (Homo sapiens, UniProt Q9BVS4); assay: RIOK2 autophosphorylation ELISA (Test Example 4); format: biochemical
T1 construct: glutathione S-transferase is fused to N-terminal of a full-length human RIOK2 protein; GST (glutathione S-transferase) (N); purchased CarnaBio, Inc; host or cells: baculovirus-Sf21 cell expression system
Procedure: A protein in which glutathione S-transferase is fused to N-terminal of a full-length human RIOK2 protein was used as a recombinant human RIOK2 protein. The protein was prepared using a baculovirus-Sf21 cell expression system from CarnaBio, Inc. A kinase reaction solution was prepared by mixing 25 μg/mL of the recombinant human RIOK2 protein and 100 μM of ATP in 20 μl of kinase reaction buffer (50 mM Tris-HCl, 10 mM MgCl2, 10 mM MnCl2, 1 mM DTT, 0.01% Brij, 1× PhosSTOP (manufactured by Roche Applied Science)), and was incubated at a temperature of 30° C. for 1 hour. After adding 30 μl of 40 mM EDTA solution to this kinase reaction solution, the kinase reaction solution was transferred to a MaxiSorp 96 well plate (manufactured by Nunc). Thereafter, phosphorylated human RIOK2 protein was allowed to adsorb onto the wells by leaving the plate in a refrigerator overnight.
The following day, the supernatant was removed, and the wells were washed three times with ELISA buffer (20 mM Tris-HCl, 150 mM NaCl, 0.2% Tween-20, 0.1% BSA). Thereafter, 100 μl of Blocking-One P (product name; manufactured by Nacalai Tesque, Inc.) was applied to the wells, and a blocking treatment was performed for 1 hour at room temperature. […] After further washing the wells, a secondary antibody, anti-rabbit IgG conjugated with horseradish peroxidase (manufactured by Jackson ImmunoResearch; 1/4000 ELISA buffer-diluted solution), was applied to the wells, and incubation was performed for 30 minutes at room temperature. After washing the wells once again, 50 μl of tetramethyl benzidine (TMB) aqueous solution (manufactured by Nacalai Tesque, Inc.) was applied to the wells, and a coloring reaction was performed for 30 minutes at room temperature. Thereafter, the coloring reaction was stopped by adding 50 μl of 2M H2SO4 to the wells. An absorptiometric level of 450 nm was measured in each well using ARVO SX (manufactured by Wallac).

FaDu CSC = assay: Cancer stem cells, Cell Titer-Glo 72 hours (Test Example 3); format: cell-based; details: Homo sapiens, FaDu, 72 h
A549 CSC = assay: as above; format: cell-based; details: Homo sapiens

T1 sequence (Q9BVS4 whole entry, the tested form may be a part): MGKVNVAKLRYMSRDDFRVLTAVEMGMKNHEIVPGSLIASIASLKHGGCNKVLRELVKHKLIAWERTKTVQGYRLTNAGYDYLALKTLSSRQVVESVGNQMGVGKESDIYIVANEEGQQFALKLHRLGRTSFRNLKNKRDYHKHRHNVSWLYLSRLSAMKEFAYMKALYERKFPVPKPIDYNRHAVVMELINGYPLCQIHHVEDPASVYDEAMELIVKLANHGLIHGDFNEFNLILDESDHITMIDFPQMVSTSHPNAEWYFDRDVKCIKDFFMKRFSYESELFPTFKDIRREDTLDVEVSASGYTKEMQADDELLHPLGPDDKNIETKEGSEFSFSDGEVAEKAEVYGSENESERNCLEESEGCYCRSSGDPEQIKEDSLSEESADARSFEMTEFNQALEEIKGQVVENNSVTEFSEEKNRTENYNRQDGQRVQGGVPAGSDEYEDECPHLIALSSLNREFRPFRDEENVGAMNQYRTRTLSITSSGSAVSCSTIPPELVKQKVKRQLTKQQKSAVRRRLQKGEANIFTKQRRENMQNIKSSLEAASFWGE

IC50 (FaDu): 2.53 µM
IC50 (ACHN): 1.64 µM
IC50 (A549): 2.53 µM
IC50 (ACHN CSC): 0.22 µM
inhibition at 1 µM (human RIOK2 protein; read-out: Inhibitory activity at 1 μM (%)): 53%
inhibition at 10 µM (human RIOK2 protein; read-out: Inhibitory activity at 10 μM (%)): 91%
IC50 (FaDu CSC): 1.65 µM
IC50 (A549 CSC): 11.7 µM
SMILES: Cc1[nH]c(/C=C2\C(=O)Nc3ccc(-c4cnn(-c5ccccn5)c4)cc32)c(C)c1C(=O)NCCN1CCCC1 [Example 33]
activity at 5 µM (p-RPS6 Ser235/236): 82%
activity at 5 µM (p-RPS6 Ser240/244): 92%
activity at 5 µM (p-AMPK Thr172): 52%
